How the values were obtained:
Assay type in all cases: cell-based
[1] = test system: Pseudomonas aeruginosa 690; note: test concentration or dose not given here
Excerpt: (§1) In the indicator mutants, the synthesis of the respective siderophores, e.g. pyoverdin, pyochelin, enterobactin, aerobactin or yersiniabactin, or the biosynthesis of aromatic compounds, is blocked, or there is a lack of receptors for enterobactin, pyochelin or pyoverdin and for other important components for the bacterial transport of iron (e.g. the membrane proteins Cir, Fiu, FepA and TonB). Under conditions where there is a lack of iron, these mutants therefore cannot grow or can only grow to a very slight extent. In particular, the following indicator mutants were used: Pseudomonas aeruginosa PAO 6609, K 407, 690; E. coli AB 2847, Salmonella typhimurium enb-7, TA 270; Klebsiella pneumoniae KN 4401; Yersinia enterocolitica WAH; Proteus mirabilis 12 (wild); Proteus vulgaris 718 (wild) and Morganella morganii SBK3 (wild). […] The controls used were ferrioxamine E for the Pseudomonas strains, ferrioxamine G and enterobactin for the Salmonella strains, ferrichrome for the E. coli, Klebsiella and Y. enterocol. strains, and 3,4-dihydroxybenzylidene-2,4,6-trimethylaniline for Morganella morganii (see the above literature reference by R. Reissbrodt et al.).
(§2) The annotations + and (+) relate to non-specific promotion of growth.

[2] = test system: Salmonella typhimurium TA 2700; note: test concentration or dose not given here
Excerpt: as §1, §2

E. coli AB 2847 = test system: E. coli AB 2847; note: test concentration or dose not given here
Excerpt: as §1, §2

[3] = test system: Pseudomonas aeruginosa PAO 6609
Excerpt: as §1, §2

[4] = test system: Salmonella typhimurium enb-7; note: test concentration or dose not given here
Excerpt: as §1, §2

[5] = test system: Pseudomonas aeruginosa K 407; settings: Pseudomonas aeruginosa K407
Excerpt: as §1, §2

[6] = test system: Morganella morganii SBK3 (wild); settings: M. morg. SBK 3
Excerpt: as §1, §2

## CC(=O)Oc1cccc(C(=O)Nc2ccccc2C(=O)O)c1OC(C)=O [Substance 16, 2-(2,3-Diacetoxy-benzoylamino)-benzoic Acid]
[1]
  Growth areas of siderophore indicator strains (diameter): 20 mm
[2]
  Growth areas of siderophore indicator strains (diameter): 10 mm
E. coli AB 2847
  Growth areas of siderophore indicator strains (diameter): 24 mm
[3]
  Growth areas of siderophore indicator strains (diameter): 20 mm
[4]
  Growth areas of siderophore indicator strains (diameter): 25 mm
[5]
  Growth areas of siderophore indicator strains (diameter): 20 mm

## CC(=O)Oc1cccc(C(=O)Nc2ccc(C(=O)O)cc2)c1OC(C)=O [Substance 17, 4-(2,3-Diacetoxy-benzoylamino)benzoic Acid]
E. coli AB 2847
  Growth areas of siderophore indicator strains (diameter): 26 mm
[3]
  Growth areas of siderophore indicator strains (diameter): 0 mm
[4]
  Growth areas of siderophore indicator strains (diameter): 0 mm
[6]
  Growth areas of siderophore indicator strains (diameter): 12 mm

## O=C(NCCC[C@H](NC(=O)c1cccc(O)c1O)C(=O)O)c1cccc(O)c1O [Substance 18, L-2,5-bis-(2,3-Dihydroxybenzoylamino)-pentanoic Acid]
[1]
  Growth areas of siderophore indicator strains (diameter): 18 mm
[2]
  Growth areas of siderophore indicator strains (diameter): 50 mm
E. coli AB 2847
  Growth areas of siderophore indicator strains (diameter): 30 mm
[3]
  Growth areas of siderophore indicator strains (diameter): 20 mm
[4]
  Growth areas of siderophore indicator strains (diameter): 48 mm
[5]
  Growth areas of siderophore indicator strains (diameter): 17 mm

## C[C@H](NC(=O)c1cccc(O)c1O)C(=O)O [Substance 19, L-2-(2,3-Dihydroxybenzoylamino)-propionic Acid]
[1]
  Growth areas of siderophore indicator strains (diameter): 0 mm
[2]
  Growth areas of siderophore indicator strains (diameter): 17 mm
E. coli AB 2847
  Growth areas of siderophore indicator strains (diameter): 11 mm
[4]
  Growth areas of siderophore indicator strains (diameter): 29 mm
[5]
  Growth areas of siderophore indicator strains (diameter): 10 mm

## CC(=O)Oc1cccc(C(=O)N[C@@H](C)C(=O)O)c1OC(C)=O [Substance 20, L-2-(2,3-Diacetoxybenzoylamino)-propionic Acid]
[1]
  Growth areas of siderophore indicator strains (diameter): 0 mm
[2]
  Growth areas of siderophore indicator strains (diameter): 12 mm
E. coli AB 2847
  Growth areas of siderophore indicator strains (diameter): 18 mm
[4]
  Growth areas of siderophore indicator strains (diameter): 31 mm
[5]
  Growth areas of siderophore indicator strains (diameter): 10 mm

## O=C(NCC[C@H](NC(=O)c1cccc(O)c1O)C(=O)O)c1cccc(O)c1O [Substance 21, L-2,4-Bis-(2,3-dihydroxybenzoylamino)-butyric Acid]
[1]
  Growth areas of siderophore indicator strains (diameter): 15 mm
[2]
  Growth areas of siderophore indicator strains (diameter): 40 mm
E. coli AB 2847
  Growth areas of siderophore indicator strains (diameter): 33 mm
[3]
  Growth areas of siderophore indicator strains (diameter): 14 mm
[4]
  Growth areas of siderophore indicator strains (diameter): 36 mm
[5]
  Growth areas of siderophore indicator strains (diameter): 15 mm

## O=C(NCCCCC(NC(=O)c1cccc(O)c1O)C(=O)NC[C@H](NC(=O)c1cccc(O)c1O)C(=O)O)c1cccc(O)c1O (stereo partly drawn) [Substance 22]
[1]
  Growth areas of siderophore indicator strains (diameter): 50 mm
[2]
  Growth areas of siderophore indicator strains (diameter): 50 mm
E. coli AB 2847
  Growth areas of siderophore indicator strains (diameter): 0 mm
[3]
  Growth areas of siderophore indicator strains (diameter): 48 mm
[4]
  Growth areas of siderophore indicator strains (diameter): 50 mm
[5]
  Growth areas of siderophore indicator strains (diameter): 40 mm

## CC(=O)Oc1cccc(C(=O)N[C@@H](CO)C(=O)O)c1OC(C)=O [Substance 23, L-2-[2,3-Diacetoxybenzoylamino)-3-hydroxypropionic Acid]
[1]
  Growth areas of siderophore indicator strains (diameter): 14 mm
[2]
  Growth areas of siderophore indicator strains (diameter): 20 mm
E. coli AB 2847
  Growth areas of siderophore indicator strains (diameter): 22 mm
[4]
  Growth areas of siderophore indicator strains (diameter): 27 mm

## O=C(NCCC[C@@H](NC(=O)c1cccc(O)c1O)C(=O)O)c1cccc(O)c1O [Substance 24, D-2,5-Bis-(2,3-dihydroxybenzoylamino)-pentanoic Acid]
[1]
  Growth areas of siderophore indicator strains (diameter): 20 mm
[2]
  Growth areas of siderophore indicator strains (diameter): 40 mm
E. coli AB 2847
  Growth areas of siderophore indicator strains (diameter): 40 mm
[3]
  Growth areas of siderophore indicator strains (diameter): 20 mm
[4]
  Growth areas of siderophore indicator strains (diameter): 50 mm
[5]
  Growth areas of siderophore indicator strains (diameter): 20 mm
